According to patent US4206215A, “Antimicrobial bis-[4-(substituted-amino)-1-pyridinium]alkanes” (Sterling Drug Inc., priority 1977, dated 1980):
Where two headings read alike, the source gives them in different places.

Tests used:
S. Aureus Smith = assay: In vitro antibacterial activity, MIC (modified Autotiter method); type: cell-based, Staphylococcus aureus; conditions: for MIC: Staphylococcus aureus, 20 h, read-out: MIC S. Aureus Smith
Description: (§1) The antibacterial and antifungal activity of representative examples of the compounds of Formula I was determined using a modification of the Autotiter method described by Goss, et al. Applied Microbiology 16 (9) 1,414-1,416 (1968) in which a 1,000 mcg./ml. solution of the test compound is prepared. To the first cup of the Autotray is added 0.1 ml. of the test solution. Activation of the Autotiter initiates a sequence of operations by which 0.05 ml. of the test compound solution is withdrawn from the cup by a Microtiter transfer loop and diluted in 0.05 ml. of sterile water. Following this operation, 0.05 ml. of inoculated double-strength semisynthetic medium (glucose) is added automatically to each cup. The overall operation results in final drug concentrations ranging from 500 to 0.06 mcg./ml. in twofold decrements. […] The compounds were thus tested as solutions against a variety of gram positive and gram negative bacteria including Staphylococcus aureus, Proteus mirabilis, Escherichia coli, Klebsiella pneumoniae, Pseudomonas aeruginosa, Streptococcus pyogenes, and against such fungi as Aspergillus niger, Candida albicans and Trichophyton mentagrophytes.

E. coli 100/B22 = assay: as above; type: cell-based, Escherichia coli; conditions: Escherichia coli, 100/B22, 20 h
Description: as §1

E. coli AB1932-1 = assay: as above; type: cell-based, Escherichia coli; conditions: Escherichia coli, AB19321, 20 h, read-out: MIC E. coli AB1932-1
Description: as §1

E. coli Vogel = assay: as above; type: cell-based, Escherichia coli; conditions: for MIC: Escherichia coli, 20 h, read-out: MIC E. coli Vogel
Description: as §1

K. pneum. 39645 = assay: as above; type: cell-based, Klebsiella pneumoniae; conditions: for MIC: Klebsiella pneumoniae, 20 h, read-out: MIC K. pneum. 39645
Description: as §1

P. mirab. MGH-1 = assay: as above; type: cell-based, Proteus mirabilis; conditions: for MIC: Proteus mirabilis, 20 h, read-out: MIC P. mirab. MGH-1
Description: as §1

Ps. aerug. MGH-2 = assay: as above; type: cell-based, Pseudomonas aeruginosa; conditions: for MIC: Pseudomonas aeruginosa, 20 h, read-out: MIC Ps. aerug. MGH-2
Description: as §1

S. pyogen. C203 = assay: as above; type: cell-based, Streptococcus pyogenes; conditions: for MIC: Streptococcus pyogenes, 20 h, read-out: MIC S. pyogen. C203
Description: as §1

A. niger 16404 = assay: In vitro antifungal activity, MIC (modified Autotiter method); type: cell-based, Aspergillus niger; conditions: for MIC: Aspergillus niger, 16404, 20 h, read-out: MIC A. niger 16404
Description: as §1

C. albicans 10231 = assay: as above; type: cell-based, Candida albicans; conditions: for MIC: Candida albicans, 10231, 20 h, read-out: MIC C. albicans 10231
Description: as §1

C. albicans Wisc. = assay: as above; type: cell-based, Candida albicans; conditions: Candida albicans, 20 h, read-out: MIC C. albicans Wisc.
Description: as §1

T. menta. 9129 = assay: as above; type: cell-based, Trichophyton mentagrophytes; conditions: for MIC: Trichophyton mentagrophytes, 20 h, read-out: MIC T. menta. 9129
Description: as §1

[1] = 18-20 hours at 37° C., read-out: MIC E. coli 100/B22

Row | Compound | MIC (S. Aureus Smith; 18-20 hours at 37° C.) | MIC (E. coli Vogel; 18-20 hours at 37° C.) | MIC (K. pneum. 39645; 18-20 hours at 37° C.) | MIC (P. mirab. MGH-1; 18-20 hours at 37° C.) | MIC (Ps. aerug. MGH-2; 18-20 hours at 37° C.) | MIC (S. pyogen. C203; 18-20 hours at 37° C.) | MIC (A. niger 16404; 18-20 hours at 37° C.) | MIC (C. albicans 10231; 18-20 hours at 37° C.) | MIC (T. menta. 9129; 18-20 hours at 37° C.) | further results
1 | Nc1cc[n+](CCCCCCCCCC[n+]2ccc(N)cc2)cc1 [II, 1,10-bis-(4-amino-1-pyridinium)decane dibromide, reference compound] |  |  |  |  |  |  |  |  |  | MIC (S. Aureus Smith): 7.8 µg/mL; MIC (E. coli 100/B22; read-out: MIC E. coli 100/B22, 18-20 hours at 37° C.): 62.5 µg/mL; MIC (E. coli AB1932-1): 31.3 µg/mL; MIC (E. coli Vogel): 62.5 µg/mL; MIC (K. pneum. 39645): 250 µg/mL; MIC (P. mirab. MGH-1): > 500 µg/mL; MIC (Ps. aerug. MGH-2): 500 µg/mL; MIC (S. pyogen. C203): 7.8 µg/mL; MIC (A. niger 16404): 125 µg/mL; MIC (C. albicans 10231): 250 µg/mL; MIC (C. albicans Wisc.): 62.5 µg/mL; MIC (T. menta. 9129): 15.6 µg/mL
2 | CCCCCCCCNc1cc[n+](CCCCCCCCCCCCCC[n+]2ccc(NCCCCCCCC)cc2)cc1 [Example 46, 1,14-bis-[4-(octylamino)-1-pyridinium]tetradecane dibromide] | 1 µg/mL | 7.8 µg/mL | 7.8 µg/mL | 3.9 µg/mL | 3.9 µg/mL | 1.95 µg/mL | 15.6 µg/mL | 7.8 µg/mL | 1.95 µg/mL | MIC (E. coli 100/B22; [1]): 3.9 µg/mL; MIC (E. coli AB1932-1; 18-20 hours at 37° C.): 3.9 µg/mL; MIC (C. albicans Wisc.; 18-20 hours at 37° C.): 7.8 µg/mL
3 | CCCNc1cc[n+](CCCCCCCCCC[n+]2ccc(NCCC)cc2)cc1 [Example 30, 1,10-bis-[4-(propylamino)-1-pyridinium]decane dibromide] | 1.95 µg/mL | > 62.5 µg/mL | > 62.5 µg/mL | > 250 µg/mL | > 62.5 µg/mL | 3.9 µg/mL | 31.3 µg/mL | 15.6 µg/mL | 1 µg/mL | MIC (E. coli 100/B22; [1]): > 62.5 µg/mL; MIC (E. coli AB1932-1; 18-20 hours at 37° C.): > 62.5 µg/mL; MIC (C. albicans Wisc.; 18-20 hours at 37° C.): 7.8 µg/mL
4 | CCCCCCCCNc1cc[n+](CCCCCCC[n+]2ccc(NCCCCCCCC)cc2)cc1 [Example 43, 1,7-bis-[4-(octylamino)-1-pyridinium]heptane dibromide] | 0.5 µg/mL | 1.95 µg/mL | 1 µg/mL | 7.8 µg/mL | 31.3 µg/mL | 1 µg/mL | 7.8 µg/mL | 1.95 µg/mL | 1 µg/mL | MIC (E. coli 100/B22; [1]): 1 µg/mL; MIC (E. coli AB1932-1; 18-20 hours at 37° C.): 1 µg/mL; MIC (C. albicans Wisc.; 18-20 hours at 37° C.): 1.95 µg/mL
5 | Nc1cc[n+](CCCCCCCCC[n+]2ccc(N)cc2)cc1 [VII, 1,9-bis-(4-amino-1-pyridinium)nonane dibromide, reference compound] | 31.3 µg/mL | 250 µg/mL | 500 µg/mL | > 500 µg/mL | > 500 µg/mL | 7.8 µg/mL | 250 µg/mL | 31.3 µg/mL | 15.6 µg/mL | 
6 | Nc1cc[n+](CCCCCCCCCCCC[n+]2ccc(N)cc2)cc1 [V, 1,12-bis-(4-amino-1-pyridinium)dodecane dibromide, reference compound] | 1.95 µg/mL | 62.5 µg/mL | > 62.5 µg/mL | > 125 µg/mL | > 62.5 µg/mL | 1 µg/mL | 31.3 µg/mL | 31.3 µg/mL | 3.9 µg/mL | 
7 | CCCCCCCCNc1cc[n+](CCCCCCCCCC[n+]2ccc(NCCCCCCCC)cc2)cc1 [Example 10C, 1,10-bis-[4-(octylamino)-1-pyridinium]decane bis(1-oxo-2-pyridinethiolate)] |  |  |  |  |  |  |  |  |  | MIC S. Aureus Smith (S. Aureus Smith; 18-20 hours at 37° C.): 1.0 µg/mL; MIC E. coli Vogel (E. coli Vogel; 18-20 hours at 37° C.): 1.0 µg/mL; MIC K. pneum. 39645 (K. pneum. 39645; 18-20 hours at 37° C.): 1.95 µg/mL; MIC P. mirab. MGH-1 (P. mirab. MGH-1; 18-20 hours at 37° C.): 1.95 µg/mL; MIC Ps. aerug. MGH-2 (Ps. aerug. MGH-2; 18-20 hours at 37° C.): 3.9 µg/mL; MIC S. pyogen. C203 (S. pyogen. C203; 18-20 hours at 37° C.): 0.5 µg/mL; MIC A. niger 16404 (A. niger 16404; 18-20 hours at 37° C.): 1.95 µg/mL; MIC C. albicans 10231 (C. albicans 10231; 18-20 hours at 37° C.): 1.0 µg/mL; MIC T. menta. 9129 (T. menta. 9129; 18-20 hours at 37° C.): 1.0 µg/mL
8 | Nc1cc[n+](CCCC[n+]2ccc(N)cc2)cc1 [III, 1,4-bis-(4-amino-1-pyridinium)butane dibromide, reference compound] | 125 µg/mL | 250 µg/mL | > 500 µg/mL | > 500 µg/mL | > 500 µg/mL | 62.5 µg/mL | 500 µg/mL | > 500 µg/mL | 500 µg/mL | 
9 | Cc1cc(N)cc[n+]1CCCCCCCCC[n+]1ccc(N)cc1C [IX, 1,9-bis-(4-amino-2-methyl-1-pyridinium)nonane dibromide, reference compound] | 3.9 µg/mL | 31.3 µg/mL | 250 µg/mL | > 500 µg/mL | > 500 µg/mL | 3.9 µg/mL | 31.3 µg/mL | 31.3 µg/mL | 7.8 µg/mL | 
10 | Cc1cc(N)cc[n+]1CCCCCCCC[n+]1ccc(N)cc1C [VIII, 1,8-bis-(4-amino-2-methyl-1-pyridinium)octane dibromide, reference compound] |  |  |  |  |  |  |  |  |  | MIC (S. Aureus Smith): 31.3 µg/mL; MIC (E. coli Vogel): > 250 µg/mL; MIC (K. pneum. 39645): 500 µg/mL; MIC (P. mirab. MGH-1): > 500 µg/mL; MIC (Ps. aerug. MGH-2): > 500 µg/mL; MIC (S. pyogen. C203): 7.8 µg/mL; MIC (A. niger 16404): 125 µg/mL; MIC (C. albicans 10231): 125 µg/mL; MIC (T. menta. 9129): 15.6 µg/mL
11 | Nc1cc[n+](CCCCCC[n+]2ccc(N)cc2)cc1 [IV, 1,6-bis-(4-amino-1-pyridinium)hexane dibromide, reference compound] | 125 µg/mL | 250 µg/mL | > 500 µg/mL | > 500 µg/mL | > 500 µg/mL | 62.5 µg/mL | 500 µg/mL | > 500 µg/mL | > 500 µg/mL | 
12 | CC(CCCCCCCCC[n+]1ccc(N)cc1)[n+]1ccc(N)cc1 (stereo not drawn) [VI, 1,10-bis-(4-amino-1-pyridinium)-1-methyldecane dibromide, reference compound] | 15.6 µg/mL | 250 µg/mL | 500 µg/mL | > 500 µg/mL | > 500 µg/mL | 15.6 µg/mL | 250 µg/mL | 31.3 µg/mL | 15.6 µg/mL | 
